Patent US20230099106A1, “PRODRUGS USEFUL IN ADOPTIVE CELL THERAPY” (Memorial Sloan Kettering Cancer Center, priority 2020, published 2023)
Where two headings read alike, the source gives them in different places.

Legend:
HCC827 (adenocarcinoma) = experiment: Cell-Titer Glo cytotoxicity assay, HCC827 cells; type: cell-based; conditions: for IC50: Homo sapiens, 48 hours of drug treatment, ≥ 6 drug dilutions (3-fold); for cytotoxicity (cell viability): HCC827, 48 hrs
Experimental: FIG. 3 provides the results of HCC827 cells incubated for 48 hrs. with or without CPG2 in the presence of APdMG-Glu where cell viability was measured by Cell-Titre Glo, according to the working examples. The viability of the cells incubated with the active version of the drug (O-(3-aminopropyl)-des-morpholino-gefitinib) are shown for comparison.
(§1) Prodrug/Drug IC50 and trans and cis-toxicity assays with secreted enzyme were performed using Cell-Titer Glo (Promega). Cells were analyzed in triplicate wells of a 96-well dish and equivalent volume of Cell-Titer Glo reagent was added to each well. Following a 10-minute incubation at room temperature samples were transferred to White 96-well Optiplate (Perkin Elmer) and luminescence was measured on a SpectraMax M2 plate reader (Molecular Devices). Data were analyzed with SoftMax Pro software.

PC9 (adenocarcinoma) = experiment: Cell-Titer Glo cytotoxicity assay, PC9 cells; type: cell-based; conditions: for IC50: Homo sapiens, PC-9, 48 hours of drug treatment, ≥ 6 drug dilutions (3-fold)
Experimental: as §1

CPG2 [1] = molecular target: T1, CPG2 (Pseudomonas sp., UniProt P06621); type: biochemical; conditions: for Vmax: disappearance of substrate and/or appearance of product
T1 construct: HA (C); His (C); host or cells: E. coli
Text: CPG2 proteins were produced and purified by GenScript. Constructs contain c-terminal HA and His epitope tags and were purified by nickel columns.

CPG2 [2] = molecular target: T1, CPG2; experiment: Amplex Red glutamate release assay with recombinant CPG2; type: biochemical; conditions: incubated with recombinant CPG2, FIG. 2
Experimental: FIG. 2 provides the results of incubating APdMG-Glu, an embodiment of a prodrug compound of the present technology, with increasing concentration of recombinant CPG2 where glutamate release was measured in an Amplex Red assay, according to the working examples.
Recombinant CPG2 enzyme was incubated with prodrugs in CPG2 reaction buffer (1M TrisHCL, 2 mM ZnCl2) for 2 hr at 37° C. and the enzyme/prodrug mixture was combined 1:1 with Amplex Red™ Glutamate Oxidase Assay mixture (Thermo cat # A12221). Following 30 min at 37° C. fluorescent emission at 590 nm was measured on a SpectraMax M2 plate reader (Molecular Devices). Data were analyzed with SoftMax Pro software.

[3] = substrate of CPG2, RapidFire-MS

T1 sequence (P06621 23-415): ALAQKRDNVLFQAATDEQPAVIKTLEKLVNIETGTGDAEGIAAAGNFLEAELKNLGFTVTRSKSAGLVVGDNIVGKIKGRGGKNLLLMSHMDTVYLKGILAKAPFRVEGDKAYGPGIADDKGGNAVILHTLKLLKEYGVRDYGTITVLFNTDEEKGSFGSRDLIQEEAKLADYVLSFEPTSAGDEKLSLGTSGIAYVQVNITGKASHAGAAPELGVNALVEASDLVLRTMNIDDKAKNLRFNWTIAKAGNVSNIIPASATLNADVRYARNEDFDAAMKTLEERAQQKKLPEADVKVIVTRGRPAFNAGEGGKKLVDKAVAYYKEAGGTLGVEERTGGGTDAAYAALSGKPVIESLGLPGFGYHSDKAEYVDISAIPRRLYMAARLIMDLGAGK

| Structure (SMILES) | IC50 (HCC827 (adenocarcinoma); HCC827) [nM] | IC50 (PC9 (adenocarcinoma)) [nM] | Km (CPG2 [1]; [3]) [µM] | kcat (CPG2 [1]; [3]) [s⁻¹] | Vmax (CPG2 [1]; [3]) [µM/s] | cleavage of the glutamate moiety (glutamate release) (CPG2 [2]) | cytotoxicity (cell viability) (HCC827 (adenocarcinoma); plus recombinant CPG2, FIG. 3) | cytotoxicity (cell viability) (HCC827 (adenocarcinoma); prodrug alone without CPG2, FIG. 3) | Selective index (HCC827 (adenocarcinoma); HCC827, prodrug vs active drug) | Selective index (PC9 (adenocarcinoma); prodrug vs active drug) | Km (CPG2 [1]) [µM] |
| --- | --- | --- | --- | --- | --- | --- | --- | --- | --- | --- | --- |
| COc1cc2ncnc(Nc3ccc(F)c(Cl)c3)c2cc1OCCCN [APdMG, 6-(3-Aminopropoxy)-N-(3-chloro-4-fluorophenyl)-7-methoxyquinazolin-4-amine] | 20 | 210 |  |  |  |  |  |  |  |  |  |
| COc1cc2ncnc(Nc3ccc(F)c(Cl)c3)c2cc1OCCCNC(=O)OCc1ccc(NC(=O)N[C@@H](CCC(=O)O)C(=O)O)cc1 [APdMG-Glu, ((4-((((3-((4-((3-chloro-4-fluorophenyl)amino)-7-methoxyquinazolin-6-yl)oxy)propyl)carbamoyl)oxy)methyl)phenyl)carbamoyl)-L-glutamic acid] | 110 | 240 | 2.25 | 0.137 | 0.10 | confirm cleavage of the glutamate moiety | cytotoxicity comparable to that of the parent drug gefitinib | not APdMG-Glu alone | 5.5 | 6 |  |
| CN(Cc1cnc2nc(N)nc(N)c2n1)c1ccc(C(=O)N[C@@H](CCC(=O)O)C(=O)O)cc1 [methotrexate, reference compound] |  |  |  | 10.36 | 0.39 |  |  |  |  |  | 9.45 |
